Test results taken from patent publication US20020111274A1, “1-alkyl-3-[1-(substituted phenyl) benzotriazol-6-yl] uracils” (BASF Aktiengesellschaft, priority 2000, published 2002).

How the values were obtained:
[1] = system: ZEAMX Corn, Field; experiment: Postemergence herbicidal evaluation, ZEAMX; format: in vivo, Zea mays, L. (Sammel-Bezeichnung); parameters: scale not given here; details: postemergence spray, rated about two-three weeks after treatment
Outline: (§1)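 Two-week-old seedlings sprayed postemergence with compound in 80/20 acetone/water plus 1.0% methylated seed oil, at about 0.006–0.400 kg/ha, through a nozzle at 40 psi. Plants kept under greenhouse conditions and visually rated about two–three weeks after treatment; ratings from repeat tests averaged.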

[2] = system: IPOHE Morningglory, Ivyleaf; experiment: Postemergence herbicidal evaluation, IPOHE; format: in vivo, Ipomoea hederacea, (L.) Jacq.; parameters: scale not given here; details: postemergence spray, rated about two-three weeks after treatment
Outline: as §1

[3] = system: GLXMAW Soybean, Williams; experiment: Preemergence herbicidal evaluation, GLXMAW; format: in vivo, Glycine max, (L.) Merr. cv Williams; parameters: scale not given here; details: preemergence
Outline: (§2)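 First, seed is blended with potting soil and sown over roughly an inch of soil per cup. Next, the surface is sprayed with an aqueous acetone solution delivering about 0.013–0.800 kg/ha. Finally, cups are grown in the greenhouse and rated after 4–5 weeks.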

[4] = system: ECHOG Barnyardgrass; experiment: Postemergence herbicidal evaluation, ECHOG; format: in vivo, Echinochloa crus-galli, (L.) Beau; parameters: scale not given here; details: postemergence spray, rated about two-three weeks after treatment
Outline: as §1

[5] = system: SETVI Foxtail, Green; experiment: Preemergence herbicidal evaluation, SETVI; format: in vivo, Setaria viridis, (L.) Beau; parameters: scale not given here; details: preemergence
Outline: as §2

[6] = system: TRZAWR Wheat, Winter, cv Riband; experiment: Postemergence herbicidal evaluation, TRZAWR; format: in vivo, Triticum aestivum; parameters: scale not given here; details: postemergence spray, rated about two-three weeks after treatment
Outline: as §1

[7] = system: ABUTH Velvetleaf; experiment: Postemergence herbicidal evaluation, ABUTH; format: in vivo, Abutilon theophrasti, Medic.; parameters: scale not given here; details: postemergence spray, rated about two-three weeks after treatment
Outline: as §1

[8] = system: GLXMAW Soybean, Williams; experiment: Postemergence herbicidal evaluation, GLXMAW; format: in vivo, Glycine max, (L.) Merr. cv Williams; parameters: scale not given here; details: postemergence spray, rated about two-three weeks after treatment
Outline: as §1

[9] = system: TRZAWR Wheat, Winter, cv Riband; experiment: Preemergence herbicidal evaluation, TRZAWR; format: in vivo, Triticum aestivum; parameters: scale not given here; details: preemergence, rate 0.062 kg/ha
Outline: as §2

[10] = system: AMBEL Ragweed, Common; experiment: Preemergence herbicidal evaluation, AMBEL; format: in vivo, Ambrosia artemisifolia, L.; parameters: scale not given here; details: preemergence
Outline: as §2

[11] = system: CHEAL Lambsquarters, Common; experiment: Preemergence herbicidal evaluation, CHEAL; format: in vivo, Chenopodium album, L.; parameters: scale not given here; details: preemergence
Outline: as §2

[12] = system: IPOHE Morningglory, Ivyleaf; experiment: Preemergence herbicidal evaluation, IPOHE; format: in vivo, Ipomoea hederacea, (L.) Jacq.; parameters: scale not given here; details: preemergence
Outline: as §2

[13] = system: ECHOG Barnyardgrass; experiment: Preemergence herbicidal evaluation, ECHOG; format: in vivo, Echinochloa crus-galli, (L.) Beau; parameters: scale not given here; details: preemergence
Outline: as §2

[14] = system: ORYSAT Rice, Tebonnet; experiment: Preemergence herbicidal evaluation, ORYSAT; format: in vivo, Oryza sativa, (L.); parameters: scale not given here; details: preemergence
Outline: as §2

[15] = system: ZEAMX Corn, Field; experiment: Preemergence herbicidal evaluation, ZEAMX; format: in vivo, Zea mays, L. (Sammel-Bezeichnung); parameters: scale not given here; details: preemergence
Outline: as §2

[16] = system: AMBEL Ragweed, Common; experiment: Postemergence herbicidal evaluation, AMBEL; format: in vivo, Ambrosia artemisifolia, L.; parameters: scale not given here; details: postemergence spray, rated about two-three weeks after treatment
Outline: as §1

[17] = system: ORYSAT Rice, Tebonnet; experiment: Postemergence herbicidal evaluation, ORYSAT; format: in vivo, Oryza sativa, (L.); parameters: scale not given here; details: postemergence spray, rated about two-three weeks after treatment
Outline: as §1

[18] = system: CASOB Sicklepod; experiment: Postemergence herbicidal evaluation, CASOB; format: in vivo, Cassia obtusifolia, L.; parameters: scale not given here; details: postemergence spray, rated about two-three weeks after treatment
Outline: as §1

[19] = system: CHEAL Lambsquarters, Common; experiment: Postemergence herbicidal evaluation, CHEAL; format: in vivo, Chenopodium album, L.; parameters: scale not given here; details: postemergence spray, rated about two-three weeks after treatment
Outline: as §1

[20] = system: GALAP Galium; experiment: Preemergence herbicidal evaluation, GALAP; format: in vivo, Galium aparine; parameters: scale not given here; details: preemergence
Outline: as §2

[21] = system: CASOB Sicklepod; experiment: Preemergence herbicidal evaluation, CASOB; format: in vivo, Cassia obtusifolia, L.; parameters: scale not given here; details: preemergence
Outline: as §2

[22] = system: SETVI Foxtail, Green; experiment: Postemergence herbicidal evaluation, SETVI; format: in vivo, Setaria viridis, (L.) Beau; parameters: scale not given here; details: postemergence spray, rated about two-three weeks after treatment
Outline: as §1

[23] = system: ABUTH Velvetleaf; experiment: Preemergence herbicidal evaluation, ABUTH; format: in vivo, Abutilon theophrasti, Medic.; parameters: scale not given here; details: preemergence
Outline: as §2

[24] = system: GALAP Galium; experiment: Postemergence herbicidal evaluation, GALAP; format: in vivo, Galium aparine; parameters: scale not given here; details: postemergence spray, rated about two-three weeks after treatment
Outline: as §1

CCc1ccc(-n2nnc3cc(F)c(-n4c(=O)cc(C(F)(F)F)n(C)c4=O)cc32)cc1 [Example 17, 3-[1-(4-ethylphenyl)-5-fluoro-1H-1,2,3-benzotriazol-6-yl]-1-methyl-6-(trifluoromethyl)-2,4(1H,3H)-pyrimidinedione]
6.0: IPOHE herbicidal rating ([12]; rate 0.062 kg/ha) | Postemergence herbicidal rating AMBEL ([16]; 0.016 kg/ha) | Postemergence herbicidal rating CASOB ([18]; 0.062 kg/ha) | Postemergence herbicidal rating CHEAL ([19]; 0.016 kg/ha)
1.3: CASOB herbicidal rating ([21]; rate 0.032 kg/ha)
1.5: GLXMAW herbicidal rating ([3]; rate 0.016 kg/ha)
4.0: Postemergence herbicidal rating TRZAWR ([6]; 0.032 kg/ha) | ORYSAT herbicidal rating ([14]; rate 0.062 kg/ha) | ZEAMX herbicidal rating ([15]; rate 0.062 kg/ha) | Postemergence herbicidal rating ORYSAT ([17]; 0.062 kg/ha) | Postemergence herbicidal rating GALAP ([24]; 0.016 kg/ha) | Postemergence herbicidal rating GALAP ([24]; 0.032 kg/ha)
4.7: ORYSAT herbicidal rating ([14]; rate 0.125 kg/ha)
9.0: Postemergence herbicidal rating IPOHE ([2]; 0.008 kg/ha) | Postemergence herbicidal rating IPOHE ([2]; 0.016 kg/ha) | Postemergence herbicidal rating IPOHE ([2]; 0.032 kg/ha) | Postemergence herbicidal rating IPOHE ([2]; 0.062 kg/ha) | SETVI herbicidal rating ([5]; rate 0.062 kg/ha) | SETVI herbicidal rating ([5]; rate 0.125 kg/ha) | Postemergence herbicidal rating ABUTH ([7]; 0.008 kg/ha) | Postemergence herbicidal rating ABUTH ([7]; 0.016 kg/ha) | Postemergence herbicidal rating ABUTH ([7]; 0.032 kg/ha) | Postemergence herbicidal rating ABUTH ([7]; 0.062 kg/ha) | CHEAL herbicidal rating ([11]; rate 0.016 kg/ha) | CHEAL herbicidal rating ([11]; rate 0.032 kg/ha) | CHEAL herbicidal rating ([11]; rate 0.062 kg/ha) | CHEAL herbicidal rating ([11]; rate 0.125 kg/ha) | IPOHE herbicidal rating ([12]; rate 0.125 kg/ha) | Postemergence herbicidal rating AMBEL ([16]; 0.062 kg/ha) | Postemergence herbicidal rating CHEAL ([19]; 0.008 kg/ha) | Postemergence herbicidal rating CHEAL ([19]; 0.062 kg/ha) | ABUTH herbicidal rating ([23]; rate 0.016 kg/ha) | ABUTH herbicidal rating ([23]; rate 0.062 kg/ha) | ABUTH herbicidal rating ([23]; rate 0.125 kg/ha)
2.0: Postemergence herbicidal rating GALAP ([24]; 0.008 kg/ha)
3.3: AMBEL herbicidal rating ([10]; rate 0.032 kg/ha) | IPOHE herbicidal rating ([12]; rate 0.032 kg/ha) | CASOB herbicidal rating ([21]; rate 0.062 kg/ha)
6.7: AMBEL herbicidal rating ([10]; rate 0.062 kg/ha) | ZEAMX herbicidal rating ([15]; rate 0.125 kg/ha)
5.0: Postemergence herbicidal rating ZEAMX ([1]; 0.008 kg/ha) | Postemergence herbicidal rating ECHCG ([4]; 0.062 kg/ha) | Postemergence herbicidal rating TRZAWR ([6]; 0.062 kg/ha) | Postemergence herbicidal rating AMBEL ([16]; 0.008 kg/ha) | Postemergence herbicidal rating CASOB ([18]; 0.032 kg/ha)
1.0: Postemergence herbicidal rating ECHCG ([4]; 0.032 kg/ha) | ORYSAT herbicidal rating ([14]; rate 0.016 kg/ha) | ZEAMX herbicidal rating ([15]; rate 0.016 kg/ha) | Postemergence herbicidal rating CASOB ([18]; 0.008 kg/ha) | GALAP herbicidal rating ([20]; rate 0.062 kg/ha) | GALAP herbicidal rating ([20]; rate 0.125 kg/ha) | Postemergence herbicidal rating SETVI ([22]; 0.008 kg/ha) | Postemergence herbicidal rating SETVI ([22]; 0.016 kg/ha)
7.3: SETVI herbicidal rating ([5]; rate 0.032 kg/ha)
8.0: Postemergence herbicidal rating AMBEL ([16]; 0.032 kg/ha) | Postemergence herbicidal rating SETVI ([22]; 0.062 kg/ha)
7.0: Postemergence herbicidal rating GLXMAW ([8]; 0.062 kg/ha) | Postemergence herbicidal rating CHEAL ([19]; 0.032 kg/ha) | ABUTH herbicidal rating ([23]; rate 0.032 kg/ha) | Postemergence herbicidal rating GALAP ([24]; 0.062 kg/ha)
2.3: CASOB herbicidal rating ([21]; rate 0.125 kg/ha)
3.7: ZEAMX herbicidal rating ([15]; rate 0.032 kg/ha)
8.3: AMBEL herbicidal rating ([10]; rate 0.125 kg/ha) | ECHCG herbicidal rating ([13]; rate 0.125 kg/ha)
5.5: Postemergence herbicidal rating ZEAMX ([1]; 0.016 kg/ha) | Postemergence herbicidal rating ZEAMX ([1]; 0.032 kg/ha) | Postemergence herbicidal rating ZEAMX ([1]; 0.062 kg/ha) | Postemergence herbicidal rating GLXMAW ([8]; 0.008 kg/ha) | Postemergence herbicidal rating GLXMAW ([8]; 0.016 kg/ha) | Postemergence herbicidal rating GLXMAW ([8]; 0.032 kg/ha)
189 to 192 °C: melting point
3.5: Postemergence herbicidal rating TRZAWR ([6]; 0.008 kg/ha) | Postemergence herbicidal rating TRZAWR ([6]; 0.016 kg/ha) | Postemergence herbicidal rating ORYSAT ([17]; 0.032 kg/ha)
6.3: ECHCG herbicidal rating ([13]; rate 0.062 kg/ha)
0.5: ORYSAT herbicidal rating ([14]; rate 0.032 kg/ha)
6.5: SETVI herbicidal rating ([5]; rate 0.016 kg/ha)
1.7: GLXMAW herbicidal rating ([3]; rate 0.032 kg/ha) | ECHCG herbicidal rating ([13]; rate 0.032 kg/ha)
0.0: Postemergence herbicidal rating ECHCG ([4]; 0.008 kg/ha) | Postemergence herbicidal rating ECHCG ([4]; 0.016 kg/ha) | AMBEL herbicidal rating ([10]; rate 0.016 kg/ha) | IPOHE herbicidal rating ([12]; rate 0.016 kg/ha) | ECHCG herbicidal rating ([13]; rate 0.016 kg/ha) | GALAP herbicidal rating ([20]; rate 0.016 kg/ha) | GALAP herbicidal rating ([20]; rate 0.032 kg/ha) | CASOB herbicidal rating ([21]; rate 0.016 kg/ha)
3.0: GLXMAW herbicidal rating ([3]; rate 0.062 kg/ha) | GLXMAW herbicidal rating ([3]; rate 0.125 kg/ha) | TRZAWR herbicidal rating [9] | Postemergence herbicidal rating ORYSAT ([17]; 0.008 kg/ha) | Postemergence herbicidal rating ORYSAT ([17]; 0.016 kg/ha) | Postemergence herbicidal rating CASOB ([18]; 0.016 kg/ha) | Postemergence herbicidal rating SETVI ([22]; 0.032 kg/ha)
